Where “and” joins values, the source holds several entries; their conditions need not be identical. Equal entries are not always repeated.
Experiments:
[1] = system: mammary adenocarcinoma 16/c; experiment: mammary adenocarcinoma 16/c implanted sc in C3H mice; format: in vivo, mouse; settings: ip, q4D × 5
Procedure: Compound No. 1 from Table A was also tested in a further in vivo tumor model, mammary adenocarcinoma 16/c, a tumor model sensitive to DNA binders and alkylating agents. In this experiment, the tumor was implanted sc in C3H mice, and the drug was administered ip or iv on an intermittant treatment schedule, i.e., once on days 1, 5, 9, 13 and 17. Tumors were measured 3 weeks after implantation, and activity was assessed by degree of tumor growth inhibition.

ADJ-PC6 Plasmacytoma = ADJ-PC6 Plasmacytoma implanted sc in BALB/c female mice; format: in vivo, mouse
Procedure: Likewise, Compound No. 1 from Table A was tested in an additional in vivo tumor model known as ADJ-PC6 Plasmacytoma. In this assay, tumor cells are carried by serial sc passage in BALB/c female mice and then collected aseptically on ca. day 21 and minced in Hank's balanced salt solution. The cells are then dispersed by homogenization in a loose-fitting teflon glass homogenizer, and cell concentration is adjusted to 4×10^6 viable ([…]) cells per ml by hemocytometer counts. A total of 0.5 ml (2×10^6 cells) is implanted sc on the right flank of BALB/c female mice in groups of 8. Treatment is given ip on Days 1-10, and tumors are measured in perpendicular diameters with a vernier caliper on Day 18. Tumor volume is calculated by multiplying length×width^2×0.5. Generally, ≥75% inhibition of tumor growth reflects significant antitumor effect.

[2] = system: mammary adenocarcinoma 16/c; settings: general statement on the positive control; cited from earlier work
B16 melanoma cells = experiment: B16 mouse melanoma cell clonogenic cytotoxicity assay in vitro, two hour exposure; format: cell-based; settings: B16 cloning efficiency; 2 hour exposure; 10% fetal calf serum
Procedure: The B16 mouse melanoma cell assay measures the ability of a compound to inhibit the clonogenic capacity of cells in vitro following a two hour exposure to the compound.
B16 melanoma (highly metastatic subline, F10) are used and maintained as monolayer cultures in Minimal Essential Media (Grand Island Biological Co., Grand Island, N.Y.) supplemented with 10% calf serum, 1% antibiotics in a 5% CO2 humidified incubator at 37° C. Asynchronous populations of cells are harvested and replated to 5000 cells/plate in sterile 60 mm×15 mm petri plates. Plates are incubated overnight to allow attachment of the cells to the plate. Cells are treated with the compound to be evaluated under sterile conditions, allowed to react for 2 hours followed by aspiration of medium. Plates are washed one time with 5 ml of phosphate buffered saline (PBS), followed by the addition of 5 ml of fresh media. […] Viability is measured by the ability of a cell to form a colony of greater than 50 cells. […] Plates are dried and counted with a Biotran III Automatic Count Totalized (New Brunswick Scientific Co., Edison, N.J.). Mean and standard deviation of triplicate samples are determined for each drug concentration. The data are analyzed by plotting the log of the survival fraction (number of colonies in drug treated plates/number of colonies in controls) versus the drug concentration. […]

[3] = system: HT-29 human colon carcinoma cells; experiment: HT-29 human colon carcinoma cell kill in vitro, 2 hour exposure; format: cell-based; settings: +FCS
Procedure: Additionally, in another in vitro assay, Compound No. 1 effectively killed HT-29 human colon carcinoma cells, with an IC50 (+FCS) of 5 μM following a 2 hour exposure.

[4] = system: P388 lymphocytic leukemia; experiment: in vivo ip P388 leukemia mouse model; settings: for ILS relative to cisplatin / activity in the P388 leukemia assay: ip P388, in words; for ILS (Max), maximum increase in lifespan: mice bearing ip P388 leukemia, ip days 1-5, slash-separated figures are separate experiments
From the text: P388 lymphocytic leukemia is currently the most widely used animal tumor model for screening for antitumor agents and for detailed evaluation of active compounds. This tumor system is widely accepted as an antitumor agent screening tool because it is sensitive to virtually all of the clinically active antineoplastic agents; quantitative and reproducible; amenable for large-scale screening; and predictive for activity in other animal tumor models.
10^6 P388 leukemia cells are inoculated ip in B6D2F1 mice. Twenty-four hours later, if the tumor inoculum proves to be free of bacterial contamination (as determined by 24 hours incubation in thioglycollate broth), animals are randomized into groups of 6 and housed in shoebox cages. […] An equal volume of saline is added; if the drug comes out of solution an equal volume of polyethoxylated castor oil is added and then saline qs to a concentration such that the desired dose is delivered in 0.5 ml. The final concentration of DMA, ethanol and polyethoxylated castor oil is 10 percent. Dilutions for lower doses are made with saline so there is a decreasing proportion of organic solvents in the vehicle with decreasing dosage. These vehicles provide soluble formulations (or suspensions). Formulations are prepared immediately prior to injection. The compound is administered ip on Days 1 through 5 (i.e. treatment is initiated 24 hrs after tumor inoculation). Each experiment includes three groups of 6 animals as untreated controls and animals treated with a positive control, cisplatin, at two dose levels. Animals are weighed as a group on Days 1, 5 and 9 and average weight change (Δwt.) is used as a reflection of toxicity. Each experiment also includes an inoculum titration--groups of 8 mice inoculated ip with 10^5 to 10° P388 leukemia cells. The titration is used to calculate cell kill achieved by treatment with drugs. Animals are monitored daily for mortality and experiments are terminated after 45 days. The endpoint is median survival time (MST) and increase in lifespan (ILS) which is the percentage of increase in MST relative to untreated controls. Untreated controls inoculated ip with 10^6 P388 leukemia cells generally survive for a median of 10 or 11 days. A drug is considered active if it produces ≥25 percent ILS.

[5] = system: M5076 reticulum cell sarcoma; experiment: ip implanted M5076 reticulum cell sarcoma in mice; format: in vivo, mouse; settings: mice bearing ip M5076; ip qD × 10; slash-separated figures are separate experiments
Procedure: Another chemosensitive tumor model is intraperitoneally (ip) implanted M5076 reticulum cell sarcoma in mice. In this system B6D2F female mice are inoculated with 0.5 ml of a 10 percent (w:v) brei of M5076 prepared from pooled subcutaneous (sc) tumors excised at about 21 days from C57B1/6 donors. Drugs are administered ip. Daily treatement is begun 24 hours after implantation and is continued for ten days. The treatment regimen for M5076 is more prolonged than for P388 because of the slower growth rate and longer control survival time of the M5076 tumor. The antitumor activity of Compounds No. 1 and No. 2 of Table A in the M5076 reticulum cell sarcoma tumor model is set forth in Table 2.

B16 melanoma = experiment: in vivo ip B16 melanoma in mice; set-up: species or system mouse
Procedure: In this system, groups of eight B6D2F1 mice are inoculated ip with 0.5 ml of a 10% (w:v) brei of B16 melanoma prepared from pooled sc tumors excised at 14-21 days from […] donor mice. Daily treatment is begun 24 hours after tumor implantation and is continued daily for ten (10) days. The route of drug administration is ip. The mice are monitored daily for survival for sixty (60) days. Antitumor activity is assessed by prolongation of median survival time. An ILS of ≥25% indicates activity in this tumor model.
Similarly, in another additional in vivo tumor model, namely B16 melanoma in mice, Compound No. 1 from Table A, administered ip in a dosage schedule of 8, 4, 2, 1 and 0.5 mg/kg produced an average increase in lifespan (ILS) of 32% at a maximally tolerated dose (MTD) of 3.4 μM/kg.

P388 leukemia = settings: cited from earlier work
[6] = Struck et al. 1966; cited from earlier work
[7] = Dumas et al., JP 58,192,893; cited from earlier work

N.N.[Cl][Pt][Cl] [Cisplatin, cisplatin]
Inhibition ([1]; Experiment 1, 6 mg/kg): 97%
Mean Tumor Volume on Day 21 ([1]; Experiment 1, 6 mg/kg): 30 ± 64 mm^3
N.P., proportion of mice without palpable tumors on Day 21 ([1]; Experiment 1, 6 mg/kg): 6/8
Inhibition ([1]; Experiment 2, 6 mg/kg): 100% and 98%
N.P., proportion of mice without palpable tumors on Day 21 ([1]; Experiment 2, 6 mg/kg): 8/8 and 7/8
Inhibition ([1]; Experiment 2, 8 mg/kg): 36%
Mean Tumor Volume on Day 21 ([1]; Experiment 2, 8 mg/kg): 711 ± 268 mm^3
N.P., proportion of mice without palpable tumors on Day 21 ([1]; Experiment 2, 8 mg/kg): 0/7
tumor growth inhibition (ADJ-PC6 Plasmacytoma; positive control, in words): complete tumor growth inhibition
inhibition of the growth of mammary adenocarcinoma 16/c [2]: complete inhibition

OCC1OC([S][Au])C(O)C(O)C1O.OCC1OC([S][Au])C(O)C(O)C1O.c1ccc(P(CCP(c2ccccc2)c2ccccc2)c2ccccc2)cc1 [Compound No. 1]
IC50 (B16 melanoma cells): 1 ± 0.2 µM
IC50 [3]: 5 µM
ILS relative to cisplatin [4]: comparable to the clinically useful antitumor agent cisplatin
activity in the P388 leukemia assay [4]: particularly good activity
ILS (Max), maximum increase in lifespan [4]: 86 ± 8%
ILS (MAX), maximum increase in lifespan [5]: 45% and 65%
average increase in lifespan (ILS) (B16 melanoma; B16 melanoma in mice, ip 8, 4, 2, 1 and 0.5 mg/kg, at MTD of 3.4 μM/kg): 32%
ILS, maximum increase in lifespan (B16 melanoma; mice bearing ip B16 melanoma, ip qD × 10, slash-separated figures are separate experiments): 37% and 26%
Inhibition ([1]; Experiment 1, 12 mg/kg): 96%
Mean Tumor Volume on Day 21 ([1]; Experiment 1, 12 mg/kg): 42 ± 60 mm^3
N.P., proportion of mice without palpable tumors on Day 21 ([1]; Experiment 1, 12 mg/kg): 3/5
% Inhibition of tumor growth (Day 18) (ADJ-PC6 Plasmacytoma; 3 mg/kg/day × 10, ip): 50%
MTV, mean tumor volume on Day 18 (ADJ-PC6 Plasmacytoma; 3 mg/kg/day × 10, ip): 295 ± 163 mm^3
N.P., proportion of mice without palpable tumor on Day 18 (ADJ-PC6 Plasmacytoma; 3 mg/kg/day × 10, ip): 0/8
% Inhibition of tumor growth (Day 18) (ADJ-PC6 Plasmacytoma; 6 mg/kg/day × 10, ip): 98%
MTV, mean tumor volume on Day 18 (ADJ-PC6 Plasmacytoma; 6 mg/kg/day × 10, ip): 11 ± 28 mm^3
N.P., proportion of mice without palpable tumor on Day 18 (ADJ-PC6 Plasmacytoma; 6 mg/kg/day × 10, ip): 6/7
inhibition of ADJPC6 Plasmacytoma (ADJ-PC6 Plasmacytoma; another experiment, same dose (6 mg/kg/day × 10, ip) and schedule): 23%

CC(=O)OC[C@H]1O[C@@H]([S-])[C@H](OC(C)=O)[C@@H](OC(C)=O)[C@@H]1OC(C)=O.CCP(CC)CC.[Au+] [auranofin]
activity in an intraperitoneal P388 leukemia tumor model (P388 leukemia; Mirabelli et al. 1984): respectable activity
antitumor effects in animals bearing P388 leukemia (P388 leukemia; Simon et al. 1981, Mirabelli et al. 1985): significant antitumor effects

c1ccc(P(CCP(c2ccccc2)c2ccccc2)c2ccccc2)cc1 [ethylenebis(diphenylphosphine)]
cytotoxic activity [6]: cytotoxic activity

CC[PH](CC)(CC)[Au][Se]C1OC(COC(C)=O)C(OC(C)=O)C(OC(C)=O)C1OC(C)=O (centres unmarked) [selenium analog of auranofin]
antiarthritic utility [7]: antiarthritic agents

μ-1,2-Bis(Diphenylphosphino)Ethane]Bis[(1-Thio-β-D-Galactopyranosato-S)Gold(I)] [compound 4]
ILS (Max), maximum increase in lifespan [4]: 85% and 100% and 147%
ILS (MAX), maximum increase in lifespan [5]: 37%

μ-8 1,2-Bis(Diphenylphosphino)Ethane]Bis[(2,3,4,6-Tetra-O-Acetyl-1-Thio-α-D-Mannopyranosato-S)Gold(I)] [compound 3]
ILS relative to cisplatin [4]: comparable to the clinically useful antitumor agent cisplatin
activity in the P388 leukemia assay [4]: particularly good activity
ILS (Max), maximum increase in lifespan [4]: 30% and 25%

μ-[1,2-Bis(Diphenylphosphino)Ethane]-bis [compound 8, μ-[1,2-Bis(Diphenylphosphino)Ethane]-bis [1-Thio-D-Ribofuranosato-S)Gold(I)]]
ILS (Max), maximum increase in lifespan [4]: 50% and 56%

μ-[1,2-Bis(diphenylphosphino)ethane]-bis[1-seleno-β-D-glucopyranosato-se)gold(I)] [compound 7]
ILS (Max), maximum increase in lifespan [4]: 36% and 27%
ILS (MAX), maximum increase in lifespan [5]: 46%

μ-[1,2-Bis(diphenylphosphino)ethane]bis[1,thio-α-D-mannopyranosato-S)gold(I)] [compound 5]
ILS (Max), maximum increase in lifespan [4]: 90% and 74%

μ-[1,2-Bis(diphenylphosphino)ethane]bis[2,3,4,6-tetra-O-acetyl-1-thio-β-D-glucopyranosato-S)gold(I)] [compound 2]
ILS relative to cisplatin [4]: comparable to the clinically useful antitumor agent cisplatin
activity in the P388 leukemia assay [4]: particularly good activity
ILS (Max), maximum increase in lifespan [4]: 95%
ILS (MAX), maximum increase in lifespan [5]: 67%

μ-[1,3-Bis(diphenylphosphino)propane]bis[1-thio-β-D-glucopyranosato-S)gold(I)] [compound 6]
ILS (Max), maximum increase in lifespan [4]: 28% and 56% and 41%
ILS (MAX), maximum increase in lifespan [5]: 35%

Reference: US4645756A, “[α,ω-bis(diphenylphosphino)hydrocarbon]bis[(thiosugar)gold] and bis[(selenosugar)gold] derivatives, pharmaceutical compositions and method of use” (priority 1985, dated 1987)
